Experimental data published in ChEMBL document CHEMBL2157899 (Bioorg Med Chem, 2012).
pIC50, pKi: −log10 of the molar value. Non-standard residues stand in square brackets, D forms with d. Residues, ends and D or L forms follow the SMILES beside them. ξ: configuration not given here. ξGly(octyl) = CCCCCCCCC(N)C(=O)O

Experiments:
CHO-K1 = assay: Selectivity ratio of Ki for DOP receptor expressed in CHO-K1 cells to Ki for MOP receptor expressed in CHO-K1 cells; type: cell-based
in vitro = conditions: human, Caco-2
Description: Apparent permeability across human Caco2 cells st 200 uM measured over 150 mins by LC/MS analysis

Mu-type opioid receptor [1] = molecular target: T1, Mu-type opioid receptor (Homo sapiens, UniProt P35372); assay: Agonist activity at MOP receptor expressed in CHO-K1 cells assessed as inhibition of forskolin-stimulated cAMP accumulation after 30 mins; type: functional, cell-based
[2] = Half life in human Caco2 cell homogenate at 200 uM by LC/MS analysis; type: ADME, Colon; conditions: Caco-2 cell homogenate
[3] = molecular target: Delta-type opioid receptor (Homo sapiens, UniProt P41143); assay: Displacement of [3H]DPDPE from DOP receptor expressed in CHO-K1 cells after overnight incubation by beta counting method; type: cell-based
Mu-type opioid receptor [4] = molecular target: T1, Mu-type opioid receptor; assay: Displacement of [3H]DAMGO from MOP receptor expressed in CHO-K1 cells after overnight incubation by beta counting method; type: cell-based

Chain of Delta-type opioid receptor (P41143 whole entry): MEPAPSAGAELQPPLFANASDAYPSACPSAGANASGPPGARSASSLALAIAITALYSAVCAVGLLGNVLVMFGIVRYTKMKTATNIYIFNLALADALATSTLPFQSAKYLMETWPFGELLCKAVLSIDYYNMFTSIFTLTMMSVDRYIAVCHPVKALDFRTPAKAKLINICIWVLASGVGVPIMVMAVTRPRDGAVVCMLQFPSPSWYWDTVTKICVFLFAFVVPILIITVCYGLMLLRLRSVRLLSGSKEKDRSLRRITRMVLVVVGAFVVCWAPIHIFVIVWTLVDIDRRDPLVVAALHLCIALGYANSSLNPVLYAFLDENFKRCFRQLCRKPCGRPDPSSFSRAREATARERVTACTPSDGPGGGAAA
T1 sequence (P35372 whole entry): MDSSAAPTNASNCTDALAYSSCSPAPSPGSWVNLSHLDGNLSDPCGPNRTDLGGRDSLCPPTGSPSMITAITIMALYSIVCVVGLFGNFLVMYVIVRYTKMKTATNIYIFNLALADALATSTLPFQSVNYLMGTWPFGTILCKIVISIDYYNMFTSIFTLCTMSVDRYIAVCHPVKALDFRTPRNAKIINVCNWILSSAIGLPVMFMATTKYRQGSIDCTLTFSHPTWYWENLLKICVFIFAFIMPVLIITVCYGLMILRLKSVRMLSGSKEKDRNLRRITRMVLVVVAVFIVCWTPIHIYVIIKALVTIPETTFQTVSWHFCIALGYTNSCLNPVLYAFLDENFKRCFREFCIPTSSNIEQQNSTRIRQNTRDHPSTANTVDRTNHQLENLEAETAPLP

Compound	Ratio Ki (CHO-K1)	Papp at 2.5 h, 200 µM (in vitro) [×10⁻⁶ cm/s]	pIC50 (Mu-type opioid receptor [1])	inhibition (Mu-type opioid receptor [1])	half-life at 200 µM [2] [min]	pKi [3]	pKi (Mu-type opioid receptor [4])
H-YPWFFGLM-NH2	2130	2.04	7.92	Dose-dependent effect	15.6	5.81	9.14
OC[C@@H](O)[C@@H](O)[C@H](O)[C@H](O)CO [MANNITOL]		0.488					
CCCCCCCCC(N)C(=O)N[C@@H](Cc1ccc(O)cc1)C(=O)N1CCC[C@H]1C(=O)N[C@@H](Cc1c[nH]c2ccccc12)C(=O)N[C@@H](Cc1ccccc1)C(=O)NCC(=O)N[C@@H](CC(C)C)C(=O)N[C@@H](CCSC)C(N)=O (stereo partly drawn) (H-[ξGly(octyl)]YPWFGLM-NH2)	17	8.08			52.5	5.65	6.88
CCCCCCCCC(N)C(=O)N[C@@H](Cc1ccc(O)cc1)C(=O)N1CCC[C@H]1C(=O)N[C@@H](Cc1c[nH]c2ccccc12)C(=O)N[C@@H](Cc1ccccc1)C(=O)N[C@@H](Cc1ccccc1)C(=O)NCC(=O)N[C@@H](CC(C)C)C(=O)N[C@@H](CCSC)C(N)=O (stereo partly drawn) (H-[ξGly(octyl)]YPWFFGLM-NH2)	318	10.2	7.35	Dose-dependent effect	75.8	5.91	8.41
H-YPWFGLM-NH2	1240	1.41			10.7	5.70	8.80
NC(=O)[C@H](Cc1ccccc1)NC(=O)[C@H](Cc1c[nH]c2ccccc12)NC(=O)[C@@H]1CCCN1C(=O)[C@@H](N)Cc1ccc(O)cc1 [ENDOMORPHIN-1]		1.01			5.6		
CC(C)NCC(O)COc1cccc2ccccc12 (stereo not drawn) [PROPRANOLOL]		30.5					
